Converted amounts (≈) assume the structure as drawn. Where two headings read alike, the source gives them in different places.

We go through six molecules from US20170073337A1, “DIHYDROTHIAZINE AND DIHYDROOXAZINE DERIVATIVES HAVING BACE1 INHIBITORY ACTIVITY” (Shionogi & Co., Ltd., priority 2014, published 2017).

Data set [1] addresses T1, CYP3A4 (Homo sapiens, UniProt P08684).
T1 construct: The commercially available pooled human liver microsomes are used as an enzyme resource; from tissue; host or cells: pooled human liver microsomes
In words: CYP inhibition test (CYP3A4). The class given is in vitro ADME. As to conditions: pooled human liver microsomes; terfenadine hydroxylation. The essentials: (§1)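 Metabolite formation was quantified by LC/MS/MS: dextrorphan (2D6, 5 μmol/L dextromethorphan), terfenadine alcohol (3A4, 1 μmol/L terfenadine), 4′-hydroxymephenytoin (2C19, 50 μmol/L S-mephenytoin) and hydroxytolbutamide (2C9, 100 μmol/L tolbutamide). Reactions used NADPH-started pooled human liver microsomes (0.2 mg/mL) at 37 °C with compound at 1–20 μmol/L (four points). IC50 was calculated by logistic model relative to the DMSO control.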
(Microsomes from liver hold many membrane-bound enzymes, among them those of drug oxidation.)

Data set [2] addresses T2, CYP2C19 (Homo sapiens, UniProt P33261).
T2 construct: The commercially available pooled human liver microsomes are used as an enzyme resource; from tissue; host or cells: pooled human liver microsomes
In words: CYP inhibition test (CYP2C19). The class given is in vitro ADME. The following applies: pooled human liver microsomes; mephenytoin 4′-hydroxylation. A digest of the protocol: as §1

The subject of data set [3] is Aβ production in neuroblastoma SH-SY5Y cells (SH/APPwt). In words: β-amyloid (Aβ) production inhibitory effect in cell: 96-well. The class given is cell-based. As to conditions: Homo sapiens, Assay format 96-well. As to the method:
Neuroblastoma SH-SY5V cells (SH/APPwt) with human wild-type R-APP excessively expressed therein were prepared at 8×10^5 cells/mL, and 150 μl portions thereof were inoculated into each well of a 96-well culture plate (Falcon). The cells were cultured for 2 hours at […]. in a 5% gaseous carbon dioxide incubator. […] Namely, the final DMSO concentration was 1%, and the amount of the cell culture was 200 μl. After the incubation was performed for 24 hours from the addition of the test compound, 100 μl of the culture supernatant was collected from each fraction. The amount of the Aβ in each fraction was measured. The Aβ amount was measured as follows. 10 μl of a homogeneous time resolved fluorescence (HTRF) measurement reagent (Amyloid β1-40 peptide: CIS bio international) and 10 μof the culture supernatant were put into a 384-well half area microplate (black microplate, Costar) and mixed with each other, and then left standing overnight at 4° C. while the light was shielded.

Data set [4] deals with T3, Recombinant human BACE1 (Homo sapiens, UniProt P56817).
T3 construct: purchased R&D Systems
T3 sequence (P56817 46-501): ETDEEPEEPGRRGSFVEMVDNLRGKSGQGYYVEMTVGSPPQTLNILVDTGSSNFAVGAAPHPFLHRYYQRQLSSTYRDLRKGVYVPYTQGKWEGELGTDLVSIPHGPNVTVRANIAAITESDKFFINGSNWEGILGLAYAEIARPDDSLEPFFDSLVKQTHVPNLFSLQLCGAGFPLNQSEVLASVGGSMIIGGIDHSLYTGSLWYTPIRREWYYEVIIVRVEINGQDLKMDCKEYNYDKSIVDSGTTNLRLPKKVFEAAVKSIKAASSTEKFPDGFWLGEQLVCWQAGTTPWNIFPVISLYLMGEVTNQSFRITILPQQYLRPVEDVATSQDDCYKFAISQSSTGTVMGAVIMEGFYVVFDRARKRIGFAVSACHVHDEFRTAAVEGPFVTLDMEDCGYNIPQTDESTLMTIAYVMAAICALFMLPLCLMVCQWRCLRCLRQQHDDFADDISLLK
In words: Assay of BACE1 inhibitory activity: 96-well. The class given is biochemical. The following applies: Assay format 96-well. Here is the method: 48.5 μL of substrate peptide solution (Biotin-XSEVNLDAEFRHDSGC-Eu: X=ε-amino-n-capronic acid. Eu=Europium cryplate) was added to each well of 96-hole half-area plate (a black plate: Costar), and after addition of 0.5 μl of the compound of the present invention (DMSO solution) and 1 μl of Recombinant human BACE1(R&D Systems), the reaction mixture was incubated at 30° C. for 3.5 hours. The substrate peptide was synthesized by reacting Cryptate TBPCOOH mono SMP (CIS bio international) with Biotin-XSEVNLDAEFRHDSGC (Peptide Institute, Inc.).
After the incubation for reaction, 50 μl of 8.0 μg/ml Streptavidin-XL665 (CIS bio international) dissolved in phosphate buffer (150 mmol/L […]—KH2PO4, pH 7.0, 0.008% Triton X-100, 0.8 mol/L KF) was added to each well and left stand at 30° C. for 45 minutes.

In data set [5] the target is T4, CYP2C9 (Homo sapiens, UniProt P11712).
T4 construct: The commercially available pooled human liver microsomes are used as an enzyme resource; from tissue; host or cells: pooled human liver microsomes
T4 sequence (P11712 whole entry): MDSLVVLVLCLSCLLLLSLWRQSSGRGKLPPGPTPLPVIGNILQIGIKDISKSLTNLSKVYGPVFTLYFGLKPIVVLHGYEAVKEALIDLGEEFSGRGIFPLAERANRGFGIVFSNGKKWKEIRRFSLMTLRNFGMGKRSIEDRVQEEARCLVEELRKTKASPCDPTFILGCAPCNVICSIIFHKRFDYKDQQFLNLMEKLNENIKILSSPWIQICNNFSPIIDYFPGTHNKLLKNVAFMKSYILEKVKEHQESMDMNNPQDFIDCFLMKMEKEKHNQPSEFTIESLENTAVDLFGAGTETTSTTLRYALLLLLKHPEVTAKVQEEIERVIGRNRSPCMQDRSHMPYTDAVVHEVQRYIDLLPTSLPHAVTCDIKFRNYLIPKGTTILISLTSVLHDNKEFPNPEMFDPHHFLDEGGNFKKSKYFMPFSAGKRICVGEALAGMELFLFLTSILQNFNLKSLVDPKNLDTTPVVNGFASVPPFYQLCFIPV
Kind of data set: CYP inhibition test (CYP2C9). The class given is in vitro ADME. The following applies: pooled human liver microsomes; tolbutamide methyl-hydroxylation. The essentials: as §1

Data set [6] concerns the target T5, CYP1A2 (Homo sapiens, UniProt P05177).
T5 construct: The commercially available pooled human liver microsomes are used as an enzyme resource; from tissue; host or cells: pooled human liver microsomes
T5 sequence (P05177 1-516): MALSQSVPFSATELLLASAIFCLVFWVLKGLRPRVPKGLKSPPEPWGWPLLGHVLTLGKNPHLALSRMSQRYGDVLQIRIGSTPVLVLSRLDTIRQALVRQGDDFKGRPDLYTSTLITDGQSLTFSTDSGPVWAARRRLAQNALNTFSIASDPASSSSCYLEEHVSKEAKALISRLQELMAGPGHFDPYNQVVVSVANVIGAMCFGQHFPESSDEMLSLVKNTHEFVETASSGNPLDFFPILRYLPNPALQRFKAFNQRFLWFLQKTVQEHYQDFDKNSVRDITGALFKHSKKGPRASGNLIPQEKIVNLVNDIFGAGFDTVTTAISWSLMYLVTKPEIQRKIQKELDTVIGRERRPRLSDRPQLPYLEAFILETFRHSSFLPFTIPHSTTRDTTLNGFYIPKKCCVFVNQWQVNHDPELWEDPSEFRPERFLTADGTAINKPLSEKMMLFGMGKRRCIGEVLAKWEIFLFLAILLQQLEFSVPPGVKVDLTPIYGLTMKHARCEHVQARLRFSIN
In words: CYP inhibition test (CYP1A2). The class given is in vitro ADME. The following applies: pooled human liver microsomes; 7-ethoxyresorufin O-deethylation. A digest of the protocol: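 Inhibition of CYP1A2 was measured in commercially available pooled human liver microsomes (0.2 mg protein/mL) using 7-ethoxyresorufin O-deethylation with 0.5 μmol/L ethoxyresorufin. Test compound at 1, 5, 10, 20 μmol/L in […] Hepes buffer was incubated at 37° C. after NADPH addition; methanol/acetonitrile=1/1 (v/v) stopped the reaction, and resorufin was read fluorescently.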

Data set [7] is described as follows: Solubility test. The class given is physicochemical. A digest of the protocol: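 Dissolved concentration determined by LC/MS or SPE/MS (absolute calibration) in diluted filtrates, after 2 μL of 10 mmol/L DMSO stock was added to 198 μL JP 1st or JP 2nd fluid and equilibrated either 1 h with shaking at room temperature or 16 h standing at 25 °C.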
For data set [8], the target named is T6, human ether-a-go-go related gene (hERG) channel (Homo sapiens, UniProt Q12809).
T6 construct: expressed in transfected cells; host or cells: CHO cells
T6 sequence (Q12809 whole entry): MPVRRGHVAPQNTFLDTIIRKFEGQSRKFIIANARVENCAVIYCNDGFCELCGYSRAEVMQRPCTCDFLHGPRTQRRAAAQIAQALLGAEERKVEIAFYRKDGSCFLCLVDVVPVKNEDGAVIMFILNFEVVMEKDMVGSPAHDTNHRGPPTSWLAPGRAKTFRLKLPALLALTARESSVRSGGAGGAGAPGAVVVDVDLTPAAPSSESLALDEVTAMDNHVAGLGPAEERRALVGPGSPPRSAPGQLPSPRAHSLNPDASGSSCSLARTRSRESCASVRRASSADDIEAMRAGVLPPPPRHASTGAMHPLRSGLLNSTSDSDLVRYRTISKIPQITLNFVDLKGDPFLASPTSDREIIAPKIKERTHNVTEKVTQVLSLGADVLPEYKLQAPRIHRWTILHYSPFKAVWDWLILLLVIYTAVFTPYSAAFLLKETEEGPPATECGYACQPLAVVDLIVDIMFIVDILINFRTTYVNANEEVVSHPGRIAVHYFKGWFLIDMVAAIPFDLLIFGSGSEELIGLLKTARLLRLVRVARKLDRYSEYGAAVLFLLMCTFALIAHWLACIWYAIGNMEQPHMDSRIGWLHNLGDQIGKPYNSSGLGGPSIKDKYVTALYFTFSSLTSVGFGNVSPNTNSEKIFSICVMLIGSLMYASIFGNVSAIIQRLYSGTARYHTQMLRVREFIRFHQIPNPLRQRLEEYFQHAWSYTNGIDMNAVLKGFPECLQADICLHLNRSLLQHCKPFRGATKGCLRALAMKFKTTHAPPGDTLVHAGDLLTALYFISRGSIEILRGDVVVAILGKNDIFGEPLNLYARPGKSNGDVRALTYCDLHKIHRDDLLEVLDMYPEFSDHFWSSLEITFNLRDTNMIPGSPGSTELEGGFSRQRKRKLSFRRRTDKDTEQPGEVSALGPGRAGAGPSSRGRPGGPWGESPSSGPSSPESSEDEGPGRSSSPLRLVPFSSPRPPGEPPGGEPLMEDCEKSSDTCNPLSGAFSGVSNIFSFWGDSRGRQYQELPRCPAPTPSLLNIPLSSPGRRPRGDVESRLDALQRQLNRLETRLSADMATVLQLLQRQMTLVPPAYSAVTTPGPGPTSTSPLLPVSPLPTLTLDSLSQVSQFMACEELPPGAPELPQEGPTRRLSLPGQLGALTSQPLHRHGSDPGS
Kind of data set: hERG test. The class given is cell-based. As to conditions: % inhibition of IKr tail peak current at 3 uM; CHO cells expressing hERG. A digest of the protocol:
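IKr was recorded from hERG-expressing CHO cells by automated whole-cell patch clamp at a holding potential of −80 mV. A −50 mV leak step was followed by a 2 s depolarization to +20 mV and a 2 s repolarization to −50 mV, when current was measured.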
(In general: hERG is a cardiac potassium channel; its block is linked to QT prolongation.)

The target in data set [9] is T3, Recombinant human BACE1. Kind of data set: Assay of BACE1 inhibitory activity: 384-well. As to conditions: Assay format 384-well. The class given is biochemical. The essentials:
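Recombinant human BACE1 was incubated 2 h at 25 °C with a biotin/Eu-cryptate-labelled peptide substrate and compound in DMSO. Streptavidin-XL665 in pH 7.0 phosphate buffer containing 0.8 mol/L KF was then added for 30 min at 25 °C for HTRF detection.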

For data set [10], the system named is Aβ production in neuroblastoma SH-SY5Y cells (SH/APPwt). In words: β-amyloid (Aβ) production inhibitory effect in cell: 384-well. The following applies: Homo sapiens, Assay format 384-well. The class given is cell-based. The essentials:
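SH-SY5Y cells overexpressing human wild-type APP were seeded together with test compound (final DMSO 1%) and cultured for 21 h. Aβ1-40 in the supernatant was measured by HTRF after overnight incubation at 4 °C in the dark, reading fluorescence at 620 and 665 nm.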

Data set [11] is described as follows: Metabolic stability test. The class given is in vitro ADME. The following applies: human liver microsomes, 37° C., 30 minutes, NADPH. A digest of the protocol:
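Parent compound was measured by LC/MS/MS or SPE/MS after a methanol/acetonitrile quench and reported as % remaining, with the 0 min sample set to 100%. Incubations ran 30 min at 37 °C in pH 7.4 Tris buffer containing pooled human liver microsomes at 0.5 mg protein/mL and 1 mmol/L NADPH.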

Data set [12] has as its target T7, P-gp (MDR1 expressing LLC-PK1 cells) (Homo sapiens, UniProt P08183).
T7 construct: host or cells: LLC-PK1
In words: P-gp substrate test. The class given is in vitro ADME. As to conditions: net flux = Efflux Ratio in MDR1 expressing cells / Efflux Ratio in parent LLC-PK1 cells. Here is the method:
• 1. Cell line: • a. MDR/LLC-PK1 (Becton Dickinson) • b. LLC-PK1 (Becton Dickinson) • 2. Reference substrates: • a Digoxin (2 μM)
1. […] After incubation for designed time at 37° C., an aliquot (50 μL) of transport buffer in the donor and receiver side were collected. Assay was performed by duplicate or triplicate. 3. Reference substrate and the present invention in the aliquot was quantified by LC/MS/MS.
Pc(cm/sec)−Permeated amount (pmol)/area of cell membrane (cm2)/initial concentration (nM)/incubation time (sec)
The efflux ratio was calculated using the following equation:
Efflux Ratio=Basolateral-to-Apical Pe/Apical-to-Basolateral Pe
The net flux was calculated using the following equation
Net flux=Efflux Ratio in MDK1 expressing cells/Efflux Ratio in parent cells

[13] abbreviates: JP 1st fluid, 25 °C, pH 1.2, simulated gastric fluid, kinetic from dmso stock, read-out: JP1.
[14] abbreviates: JP 2nd fluid A, 25 °C, pH 6.8, aqueous buffer, kinetic from dmso stock, read-out: JP2_μM.
Where [15] appears, read: JP 1st fluid, pH 1.2, simulated gastric fluid, kinetic from dmso stock, read-out: JP1.
Where [16] appears, read: solubility in JP 2nd fluid B, 1% DMSO, *2: shaken for 1 hour at room temperature, read-out: JP2_μM.

T7 sequence (P08183 whole entry): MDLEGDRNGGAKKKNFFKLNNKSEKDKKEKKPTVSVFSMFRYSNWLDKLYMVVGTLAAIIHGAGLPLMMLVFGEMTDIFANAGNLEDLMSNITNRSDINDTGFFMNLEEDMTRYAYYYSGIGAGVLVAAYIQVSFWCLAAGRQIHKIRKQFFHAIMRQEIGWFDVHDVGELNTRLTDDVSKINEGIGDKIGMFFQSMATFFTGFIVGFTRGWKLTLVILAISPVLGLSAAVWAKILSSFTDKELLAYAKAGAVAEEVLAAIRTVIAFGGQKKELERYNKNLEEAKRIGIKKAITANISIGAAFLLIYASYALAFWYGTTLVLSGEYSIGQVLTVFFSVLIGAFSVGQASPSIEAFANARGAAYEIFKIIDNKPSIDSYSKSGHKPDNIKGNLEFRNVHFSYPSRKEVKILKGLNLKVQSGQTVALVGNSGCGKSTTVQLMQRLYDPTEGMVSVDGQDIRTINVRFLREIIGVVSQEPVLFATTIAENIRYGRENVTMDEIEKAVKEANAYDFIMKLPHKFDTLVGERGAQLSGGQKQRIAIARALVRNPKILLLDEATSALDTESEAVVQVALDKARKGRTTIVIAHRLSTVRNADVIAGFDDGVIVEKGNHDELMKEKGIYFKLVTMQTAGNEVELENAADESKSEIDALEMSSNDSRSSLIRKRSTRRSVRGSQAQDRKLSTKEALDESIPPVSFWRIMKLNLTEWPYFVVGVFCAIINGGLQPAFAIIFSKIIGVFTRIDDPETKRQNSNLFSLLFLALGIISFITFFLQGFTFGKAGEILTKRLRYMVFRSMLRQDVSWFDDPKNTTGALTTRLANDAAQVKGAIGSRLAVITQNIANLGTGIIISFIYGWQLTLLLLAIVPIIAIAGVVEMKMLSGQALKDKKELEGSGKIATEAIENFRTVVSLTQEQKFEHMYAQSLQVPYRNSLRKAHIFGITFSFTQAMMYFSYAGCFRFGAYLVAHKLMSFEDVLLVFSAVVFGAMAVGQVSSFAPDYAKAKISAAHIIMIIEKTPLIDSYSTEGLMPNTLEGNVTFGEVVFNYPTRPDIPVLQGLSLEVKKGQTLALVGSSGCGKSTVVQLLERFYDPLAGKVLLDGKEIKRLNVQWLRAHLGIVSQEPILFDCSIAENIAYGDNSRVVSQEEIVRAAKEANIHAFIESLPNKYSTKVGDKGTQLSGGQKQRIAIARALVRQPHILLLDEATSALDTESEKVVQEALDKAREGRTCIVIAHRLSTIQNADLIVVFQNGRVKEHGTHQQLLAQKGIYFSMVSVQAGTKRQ
T1 sequence (P08684 whole entry): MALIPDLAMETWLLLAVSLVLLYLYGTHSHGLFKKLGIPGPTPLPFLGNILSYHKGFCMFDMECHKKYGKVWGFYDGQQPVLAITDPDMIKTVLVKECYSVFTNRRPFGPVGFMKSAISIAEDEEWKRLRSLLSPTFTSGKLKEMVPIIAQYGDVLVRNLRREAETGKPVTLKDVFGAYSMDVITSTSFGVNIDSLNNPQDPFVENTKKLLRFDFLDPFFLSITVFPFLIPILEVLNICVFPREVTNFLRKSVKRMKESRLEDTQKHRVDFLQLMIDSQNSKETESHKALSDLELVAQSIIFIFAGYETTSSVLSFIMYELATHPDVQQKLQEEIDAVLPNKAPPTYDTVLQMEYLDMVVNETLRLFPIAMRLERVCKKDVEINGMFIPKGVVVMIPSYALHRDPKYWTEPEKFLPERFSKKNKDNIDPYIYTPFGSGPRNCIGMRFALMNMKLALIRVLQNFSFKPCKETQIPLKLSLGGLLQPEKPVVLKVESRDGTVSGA
T2 sequence (P33261 whole entry): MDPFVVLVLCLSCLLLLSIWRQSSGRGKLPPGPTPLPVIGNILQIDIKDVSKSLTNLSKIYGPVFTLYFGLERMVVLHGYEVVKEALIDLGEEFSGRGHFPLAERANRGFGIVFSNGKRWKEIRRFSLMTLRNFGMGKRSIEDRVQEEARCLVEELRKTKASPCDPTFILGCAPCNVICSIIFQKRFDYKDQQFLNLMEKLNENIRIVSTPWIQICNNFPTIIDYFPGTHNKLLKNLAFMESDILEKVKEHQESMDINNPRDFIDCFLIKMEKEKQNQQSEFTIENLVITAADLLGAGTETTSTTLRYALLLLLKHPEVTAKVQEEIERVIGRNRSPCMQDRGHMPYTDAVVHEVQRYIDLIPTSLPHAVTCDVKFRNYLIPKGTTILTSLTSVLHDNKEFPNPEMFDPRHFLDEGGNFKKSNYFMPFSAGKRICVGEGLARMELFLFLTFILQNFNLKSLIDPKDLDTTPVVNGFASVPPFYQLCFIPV

For orientation: IC50 means the concentration needed to halve the response being measured. On to `C[C@]1(c2nc(NC(=O)c3cnc(OCF)cn3)ccc2F)N=C(N)S[C@H](CF)[C@@H]1F` [Compound I-5], for which the IC50 in data set [1] is ≥ 20000 nM; in data set [2], ≥ 20000 nM; in data set [3], 2.88 nM; in data set [4], 29.9 nM; in [5], ≥ 10000 nM; in data set [6] it was ≥ 20000 nM. The solubility kinetic at 16 h in [7] (setting [13]) is 34.3 µM (≈ 15.2 µg/mL); in data set [7] (setting [14]), > 50 µM. Also, in data set [8], the “hERG_3 uM_%” value turned out to be 27.7%.
For `C[C@]1(c2nc(NC(=O)c3ccc(Cl)cn3)ccc2F)N=C(N)S[C@H](CF)[C@@H]1F` [Compound I-6], the IC50 in data set [1] was ≥ 20000 nM; in data set [2], ≥ 10000 nM; in [3] it was 1.29 nM; in [4] it was 15 nM; in data set [6], ≥ 20000 nM.
`CO[C@H]1[C@@H](CF)OC(N)=N[C@]1(C)c1cc(NC(=O)c2ccc(Cl)cn2)ccc1Cl` [Compound I-21]: the IC50 in data set [1] was ≥ 20000 nM; in data set [2] it was ≥ 20000 nM; in data set [3], 2.93 nM; in data set [5], ≥ 20000 nM; in data set [6] it was ≥ 20000 nM. Also, the solubility kinetic at 16 h in [7] (setting [13]) is 28.8 µM (≈ 12.7 µg/mL); in data set [7] (setting [14]) it was > 50 µM. In addition, the “hERG_3 uM_%” value in data set [8] was 51.1%.
Consider `C[C@H]1SC(N)=N[C@](C)(c2cc(NC(=O)c3ccc(OCC(F)(F)F)cn3)ccc2F)[C@H]1F` [Compound I-54], for which the IC50 was 13 nM in data set [9] and 7.2 nM in [10]. Also, the remaining % in [11] is listed as 91%. For the same molecule, the “ER ratio (Cell: MDR1/LLC-PK1)” value in [12] turned out to be 1.9. The solubility kinetic at 1 h in data set [7] (setting [15]) was > 50 µM; in data set [7] (JP 2nd fluid B, pH 6.8, aqueous buffer, kinetic from dmso stock, read-out: JP2_μM) it was 38.6 µM (≈ 18.3 µg/mL). Further, the “hERG_3 uM_%” value in data set [8] is 37.7%.
As to `COc1ccc(C(=O)Nc2ccc(F)c([C@@]3(C)N=C(N)SCC34CC(F)(F)C4)c2)nc1` [Compound I-57], the IC50 in [1] was ≥ 10000 nM; in data set [9], 16.1 nM; in [10], 0.68 nM; in data set [2], ≥ 20000 nM; in data set [5] it was ≥ 20000 nM; in [6], ≥ 20000 nM. Besides, the “ER ratio (Cell: MDR1/LLC-PK1)” value in data set [12] was 0.6. The solubility kinetic at 1 h in data set [7] (setting [15]) was > 50 µM. Moreover, the solubility kinetic at 16 h in data set [7] (setting [16]) was >50 µM.
As for `Cc1cc(C#N)cnc1C(=O)Nc1ccc(F)c([C@@]2(C)N=C(N)SCC23CC(F)(F)C3)c1` [Compound I-60], the IC50 in data set [9] is 6.62 nM; in data set [10] it was 0.29 nM; in data set [2] it was ≥ 20000 nM; in data set [5], ≥ 20000 nM; in [6], ≥ 20000 nM. Also, the “ER ratio (Cell: MDR1/LLC-PK1)” value in data set [12] turned out to be 1.4. Further, the solubility kinetic at 1 h in data set [7] (setting [15]) is > 50 µM. Further, the solubility kinetic at 16 h in [7] (setting [16]) was >50 µM.
